# Test system: cell lines expressing HER2 and EGFR
# Assay: Cytotoxicity studies in vitro, free versus liposomal doxorubicin
# Type: cell-based, human
# Conditions: compared with liposomal doxorubicin
# Description: Cytotoxicity studies were conducted with doxorubicin as it is the staple drug for liposomal delivery.
# For cytotoxicity studies, cells cultured overnight in 96-well plates (10*10^3 cells/well) were incubated with doxorubicin-load liposomes (100 μg/ml with 1/3 dilutions) at 37° C. for 4 hr, washed with PBS, and grown in medium for 3 additional days. Cell viability was analyzed by MTT assay.
smiles,measurement,value
"COc1cccc2c1C(=O)c1c(O)c3c(c(O)c1C2=O)C[C@@](O)(C(=O)CO)C[C@@H]3O[C@H]1C[C@H](N)[C@H](O)[C@H](C)O1 [free doxorubicin, doxorubicin]",effectiveness in cytotoxicity studies in vitro,most effective
